ChEMBL document CHEMBL1201862, “PubChem BioAssay data set” (2004)
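Step 1: Grow cells in 96-well plates. Step 2: Expose to compound for 48 hours at 5 concentrations. Step 3: Interpolate endpoints linearly; if unreached, use highest concentration. The concentration for 50% growth inhibition is given as GI50.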 The source made the active and inactive calls. Rule as the data show it: active = GI50 up to about 1.1 µM and inactive = higher.

Assays:
Assay in all cases: NCI tumour cell line growth inhibition, 48 h
[1] = test system: SN12C
[2] = test system: OVCAR-4
[3] = test system: HCT-116
[4] = test system: HCC 2998
[5] = test system: LXFL 529
[6] = test system: CAKI-1
[7] = test system: T47D
[8] = test system: SK-MEL-28
[9] = test system: SK-OV-3
[10] = test system: U-251
[11] = test system: SF-539
[12] = test system: SW-620
[13] = test system: LOX IMVI
[14] = test system: MOLT-4
[15] = test system: SF-295
[16] = test system: MDA-MB-435
[17] = test system: M14
[18] = test system: MDA-N
[19] = test system: NCI-H23
[20] = test system: NCI-H460

SMILES | GI50 [1] | GI50 [2] | GI50 [3] | GI50 [4] | GI50 [5] | GI50 [6] | GI50 [7] | GI50 [8] | GI50 [9] | GI50 [10] | GI50 [11] | GI50 [12] | GI50 [13] | GI50 [14] | GI50 [15] | GI50 [16] | GI50 [17] | GI50 [18] | GI50 [19] | GI50 [20]
CC(C)Cn1cnc2c(Sc3c([N+](=O)[O-])ncn3C)nc(N)nc21 | > 64.6 µM (inactive) | 23.6 µM (inactive) | > 60.1 µM (inactive) | > 62.7 µM (inactive) | > 100 µM (inactive) | 22.8 µM (inactive) | 30.4 µM (inactive) | > 60.7 µM (inactive) | > 100 µM (inactive) | > 87.1 µM (inactive) | > 23.7 µM (inactive) | > 61.5 µM (inactive) | > 59.8 µM (inactive) | > 42.2 µM (inactive) | > 100 µM (inactive) | 37.5 µM (inactive) | > 52.2 µM (inactive) | 36.1 µM (inactive) | > 65.5 µM (inactive) | > 63 µM (inactive)
CC1=C(O)C(=O)C2C(=O)C1C1Cc3ccccc3C21 (stereo unspecified) |  | > 100 µM (inactive) |  | > 100 µM (inactive) | > 100 µM (inactive) | > 100 µM (inactive) |  | > 100 µM (inactive) | > 100 µM (inactive) | > 100 µM (inactive) | > 100 µM (inactive) | > 100 µM (inactive) | > 100 µM (inactive) | > 100 µM (inactive) | > 100 µM (inactive) |  | > 100 µM (inactive) |  | > 100 µM (inactive) | 
Cc1cc(CS(=O)(=O)/C=C/c2ccccc2[N+](=O)[O-])c(CS(=O)(=O)/C=C/c2ccccc2[N+](=O)[O-])cc1C | 52.6 µM (inactive) | 7.98 µM (inactive) | 37 µM (inactive) | > 85.3 µM (inactive) | > 100 µM (inactive) | 35.7 µM (inactive) | > 100 µM (inactive) | 68.7 µM (inactive) | 24 µM (inactive) | 19.6 µM (inactive) | 14.4 µM (inactive) | > 54.2 µM (inactive) | 24.3 µM (inactive) | 70.1 µM (inactive) | 16.9 µM (inactive) | > 41.9 µM (inactive) | > 69.8 µM (inactive) | > 27.9 µM (inactive) | 17.7 µM (inactive) | 33.8 µM (inactive)
CC1=C(c2cc(C(=O)Nc3ccc(Cl)c(Cl)c3)nc(N)n2)Sc2ccccc2N1 | > 100 µM (inactive) | > 100 µM (inactive) | > 100 µM (inactive) | > 100 µM (inactive) | > 100 µM (inactive) | > 100 µM (inactive) |  | > 100 µM (inactive) | > 100 µM (inactive) | > 100 µM (inactive) | > 100 µM (inactive) | > 100 µM (inactive) | > 100 µM (inactive) | > 100 µM (inactive) | > 100 µM (inactive) |  | > 100 µM (inactive) |  | > 100 µM (inactive) | > 100 µM (inactive)
CC1=CC(=O)c2c(C=O)c(O)c(O)c(C(C)C)c2C1=O | 35.1 µM (inactive) | 14.6 µM (inactive) | 18.3 µM (inactive) | 29.3 µM (inactive) | 16.5 µM (inactive) | 21.2 µM (inactive) |  | 34 µM (inactive) | 34.5 µM (inactive) | 19.8 µM (inactive) | 25.6 µM (inactive) |  | 14.9 µM (inactive) | 21.2 µM (inactive) |  |  | 31.3 µM (inactive) |  | 28.8 µM (inactive) | 28.8 µM (inactive)
Cc1ccc(NC(=O)C2C(=O)N(c3ccc(C)c(C)c3)C(=O)C2N=N)cc1C (stereo unspecified) | > 100 µM (inactive) | > 100 µM (inactive) | > 100 µM (inactive) | > 100 µM (inactive) | > 100 µM (inactive) | > 100 µM (inactive) |  | > 100 µM (inactive) | > 100 µM (inactive) | 95.9 µM (inactive) | > 100 µM (inactive) | > 100 µM (inactive) |  | > 100 µM (inactive) | 65 µM (inactive) |  | > 100 µM (inactive) |  | 74.5 µM (inactive) | 89.7 µM (inactive)
COc1ccc2c3c([nH]c2c1[N+](=O)[O-])C(C)N(C)CC3 (stereo unspecified) | > 100 µM (inactive) | 38 µM (inactive) | > 100 µM (inactive) | > 100 µM (inactive) | 69 µM (inactive) | 36.6 µM (inactive) |  | > 100 µM (inactive) | > 100 µM (inactive) | > 100 µM (inactive) | > 100 µM (inactive) | 29.6 µM (inactive) |  | 51.6 µM (inactive) | 62.8 µM (inactive) |  | > 100 µM (inactive) |  | > 100 µM (inactive) | > 100 µM (inactive)
CC(=O)OCc1cc2c(s1)C(=O)c1sccc1C2=O | 0.13 µM (active) | 0.191 µM (active) | 1.74 µM (inactive) | 1.78 µM (inactive) | 0.308 µM (active) | 1.84 µM (inactive) | 0.309 µM (active) | < 0.0386 µM (active) | 1.72 µM (inactive) | 0.248 µM (active) | 0.115 µM (active) | 0.104 µM (active) | < 0.0182 µM (active) | 0.356 µM (active) | 0.0541 µM (active) | 0.0178 µM (active) | < 0.0139 µM (active) |  | 0.018 µM (active) | 0.175 µM (active)
Cc1c(C(=O)/C=C/c2ccccc2O)c(=O)n(-c2ccccc2)n1C | 21 µM (inactive) |  | 16.5 µM (inactive) | 16 µM (inactive) | 16.7 µM (inactive) | 21.8 µM (inactive) |  | 25.1 µM (inactive) | 36.1 µM (inactive) | 12.2 µM (inactive) | 19.8 µM (inactive) | 15.1 µM (inactive) | 16.9 µM (inactive) | 19.3 µM (inactive) | 14.6 µM (inactive) |  |  |  | > 10 µM (inactive) | 12.9 µM (inactive)
COc1cc2c(c(OC)c1OC)-c1ccc(SC)c(=O)cc1C(CC(=O)Oc1ccc(F)cc1)C2 (stereo unspecified) | 0.367 µM (active) | 0.741 µM (active) | 0.0891 µM (active) | 0.121 µM (active) | 0.31 µM (active) | 0.0676 µM (active) |  | 0.48 µM (active) | 0.028 µM (active) | 0.159 µM (active) | 0.117 µM (active) | 0.0918 µM (active) | 0.236 µM (active) | 0.436 µM (active) | 0.0359 µM (active) |  | 0.172 µM (active) |  | 0.215 µM (active) | 0.253 µM (active)
CCc1cc(CCC(=O)Nc2c(C)cccc2C)n[nH]1 | > 100 µM (inactive) | > 100 µM (inactive) | > 100 µM (inactive) | > 100 µM (inactive) | > 100 µM (inactive) | > 100 µM (inactive) |  | > 100 µM (inactive) | > 100 µM (inactive) | > 100 µM (inactive) | > 100 µM (inactive) | > 100 µM (inactive) |  | > 100 µM (inactive) | > 100 µM (inactive) |  | > 100 µM (inactive) |  | > 100 µM (inactive) | > 100 µM (inactive)
CCOC1=C2C(=O)OC(=O)C2C2CCCCC2=C1 (stereo unspecified) | > 100 µM (inactive) | > 100 µM (inactive) | > 100 µM (inactive) | > 100 µM (inactive) | > 100 µM (inactive) | > 100 µM (inactive) |  | > 100 µM (inactive) | > 100 µM (inactive) | > 100 µM (inactive) | > 100 µM (inactive) | > 100 µM (inactive) | > 100 µM (inactive) | > 100 µM (inactive) | > 100 µM (inactive) |  | > 100 µM (inactive) |  | > 100 µM (inactive) | > 100 µM (inactive)
COC(=O)c1ccccc1NCc1cc(O)ccc1O | 18.6 µM (inactive) | 17.9 µM (inactive) | 19.5 µM (inactive) | 23.4 µM (inactive) | 17.5 µM (inactive) | 19.4 µM (inactive) | 15.9 µM (inactive) | 19.1 µM (inactive) | > 100 µM (inactive) | 20.1 µM (inactive) | 17.7 µM (inactive) | 24.2 µM (inactive) | 17.1 µM (inactive) | 16.1 µM (inactive) | 17.9 µM (inactive) | 17.8 µM (inactive) | 12.5 µM (inactive) | 16.4 µM (inactive) | 32.9 µM (inactive) | 30.1 µM (inactive)
COc1c(O)c2c3c(cc(C)cc3c1C(C)C)OC2 | > 100 µM (inactive) | > 100 µM (inactive) | > 100 µM (inactive) | > 100 µM (inactive) | > 100 µM (inactive) |  |  | > 100 µM (inactive) | > 100 µM (inactive) | > 100 µM (inactive) | > 100 µM (inactive) | > 100 µM (inactive) | > 100 µM (inactive) | > 100 µM (inactive) | > 100 µM (inactive) |  | > 100 µM (inactive) |  | > 100 µM (inactive) | > 100 µM (inactive)
O=C(CSc1nnc[nH]1)C[P+](c1ccccc1)(c1ccccc1)c1ccccc1 | > 100 µM (inactive) | 94 µM (inactive) |  | > 100 µM (inactive) | > 100 µM (inactive) | 54.6 µM (inactive) |  | > 100 µM (inactive) | > 100 µM (inactive) |  | > 100 µM (inactive) | > 100 µM (inactive) | > 100 µM (inactive) | 40.2 µM (inactive) | > 100 µM (inactive) |  | > 100 µM (inactive) |  | > 100 µM (inactive) | 94.4 µM (inactive)
C/C(=N\NC(=O)c1ccccc1O)c1cccc(/C(C)=N/NC(=O)c2ccccc2O)n1 | 6.07 µM (inactive) |  |  | 1.02 µM (active) | 2.22 µM (inactive) |  | 4.24 µM (inactive) |  | 4.12 µM (inactive) |  |  | 5.74 µM (inactive) | 1.7 µM (inactive) | 0.955 µM (active) | 12.5 µM (inactive) | 41.8 µM (inactive) | 12.6 µM (inactive) | > 57 µM (inactive) |  | 6.71 µM (inactive)
